Laboratory results from patent publication US20160310389A1, “Low Viscosity Hair Care Composition” (The Procter & Gamble Company, priority 2015, published 2016).

Key:
Assay type in all cases: physicochemical
[1] = Kinematic viscosity of surfactant base formulation with added agent (calibrated Cannon viscometers); conditions: for Kinematic viscosity at 40 C., 2% oil: 2% agent in base formulation; for Kinematic viscosity at 40 C., 4% oil: 4% agent in base formulation; for Kinematic viscosity at 40 C., 6% oil: 6% agent in base formulation; for Kinematic viscosity at 40 C., 8% oil: 8% agent in base formulation; for Lowest viscosity achieved: kinematic viscosity at 40° C., lowest over 2%, 4%, 6%, 8% agent in base formulation (24% sodium undecyl sulfate, 6% lauramidopropyl betaine, 1.6% perfume)
Excerpt: Referring to Tables 1 and 2, the base formulations were made by mixing 1.6% perfume, 24% sodium undecyl sulfate (CAS#1072-24-8) active, 6% lauramidopropyl betaine (CAS#4292-10-8) active and 60.4% deionized water which leaves 8% unfilled for the addition of a viscosity reducing agent (the balance being filled in by distilled water). For all compositions, the surfactant, water and additives including viscosity reducing agents were expected to be in a single phase.
The agents from Tables 1 and 2 were added to the base formulation at a percentage of 2%, 4%, 6%, and 8% into the above surfactant solution. The subsequent formulations were vortexed and put into oven at 60° C. overnight to form homogeneous solution. The viscosities of the formulations were measured with calibrated viscometers (Size 200/350/450) from Cannon Instrument Company (2139 High Tech Road, State College, Pa., USA, 16803).
After the equilibration, the formulations were drawn to reach the starting mark with a rubber suction bulb and the flow time between the starting mark and end mark was recorded for calculation. Each formulation was measured three times to calculate average and standard deviation. Between samples, viscometer was cleaned with water and acetone to rinse off residual.
Viscosity values were calculated based on the equation:
Viscosity (mm^2/s (cSt))=Time (s)*Constant (mm^2/s^2·(cSt/s))
The time in the above equation is the flow time recorded in the experiment and the constant numbers for each calibrated viscometer were obtained from the manuals.

[2] = Shear viscosity of base formulation with additives (TA Instruments AR-G2 rheometer); conditions: 5% single additive, 25 C, shear rate 1 s^-1
Excerpt: Now referring to Table 3, the base formulations were made by mixing 1.5 or 3.0% of perfume R, 24% sodium undecyl sulfate (CAS#1072-24-8) active, 6% Lauramidopropyl Betaine (CAS#4292-10-8) active, and 60.4% deionized water which leaves 8% unfilled for oil addition and level studies (the balance being filled in by distilled water).
The complete formulations were made by adding the respective percentage of the agents from Table 3 into the base formulation, and filling the rest with deionized water to make 100% finished sample. The formulations were vortexed and put into oven at 60° C. overnight to form a homogeneous solution. For all formulations, the surfactant, water and additives including viscosity reducing agents are expected to be in a single phase.
The shear viscosity at 25 C for each formulations was measured at a shear rate of 1 s^−1 using a TA Instruments AR-G2 rheometer with a concentric cylinder attachment. Shear viscosities are reported in cP.

[3] = SAXS correlation length of the micelles; conditions: for Change in correlation length compared to control: control 51 A
Excerpt: Now referring to Table 4, SAXS (Small angle x-ray scattering) was used to characterize the structure of the surfactant aggregates. For these set of samples, the broad peak represents the correlation length (CL) of the micelles and was used to differentiate between the different formulations.
SAXS data was collected with a Bruker NanoSTAR (Bruker AXS Inc., Madison, Wis., U.S.A.) using the micro-focus, Cu x-ray tube, operating at 45 kV, 0.650 mA. The sample to detector distance was 112.050 cm and the detector was Vantec2K 2-dimensional area detector. Samples were placed in 2 mm quartz capillaries, sealed with expoxy resin to prevent evaporation. The sealant is permitted to cure for 2 hours at RT (room temperature) prior to loading into the SAXS sample chamber for data acquisition under vacuum with a data collection time of 1200 s. The data acquisition angular range is 0.3° to 3.0° […], to observe the presence and location of any intensity bands in the x-ray scattering pattern.
Each raw 2-D SAXS data is integrated azimuthally and plotted versus the scattering vector (q), which is expressed as a […] in units of angstroms (1/Å). • The values for q are calculated by the SAXS instrument according to the following equation: […]
Where: 2θ is the scattering angle; and λ is the wavelength used. For each formulation analyzed, the location of each intensity peak on the plot of (Intensity) I vs q is identified and recorded.

[4] = NMR self-diffusion coefficients and specific diffusivity ratio; conditions: for Specific diffusivity ratio measured at 4%: diffusion coefficient of the viscosity reducing agent/diffusion coefficient of the surfactant, 4% additive; for Diffusion Coefficient (m^2/s) surfactant at 4% additive: surfactant self-diffusion
Procedure: Now referring to Table 5, the specified viscosity reducing agents were added to the formula at a level of 4% in absence of other viscosity reducing agents. Diffusion coefficients were determined using a vendor-supplied pulse sequence (“ledbpgq2s”, stimulated echo with bipolar gradients and convection compensation) using a Bruker Avance 700 MHz NMR spectrometer equipped with a Diff-30 high gradient diffusion probe. Gradient pulse durations ranged between 1700-2700 us, with diffusion periods ranging from 50-100 ms. 32 linearly-spaced gradient values were used ranging from 2%-95% of 40 A current, with resulting gradient strengths given by 30 Gauss/cm/A. Data were processed using software written in-house. It is often necessary to fit more than one diffusion coefficient to individual signals. Average diffusion coefficients are reported in these cases. Averages were calculated by averaging the reciprocals of the diffusion coefficients and then taking the reciprocal of that average.
The specific diffusivity ratio is calculated as the ratio of the diffusion coefficient of the viscosity reducing agent/diffusion coefficient of the surfactant.
Two mechanisms of viscosity reduction are hypothesized based on self-diffusion coefficients. This leads to a simple diagnostic measurement to classify perfumes by their mechanism of viscosity reduction. That diagnostic is the ratio of the perfume self-diffusion coefficient to the surfactant self-diffusion coefficient (specific diffusivity ratio). In mechanism 1, the surfactant diffusion coefficient is not reduced, and may be increased, while the perfume diffusion coefficient is faster still. In mechanism 2, the surfactant and perfume diffusion coefficient are reduced to relatively small, nearly equal values. For mechanism 1, the viscosity reducing agent diffuses faster than the surfactant (specific diffusivity ratio>1), whereas for mechanism 2, the viscosity reducing agent diffuses slower than the surfactant (specific diffusivity ratio<1).

Row | Compound | Kinematic viscosity at 40 C., 2% oil [1] | Kinematic viscosity at 40 C., 4% oil [1] | Kinematic viscosity at 40 C., 6% oil [1] | Kinematic viscosity at 40 C., 8% oil [1] | Lowest viscosity achieved [1] | Shear viscosity [cP] for mixture ([2]; 3.0% Royal Hue) | Shear viscosity [cP] for mixture ([2]; 1.5% Royal Hue) | Correlation length peak [A] ([3]; 2% oil) | Change in correlation length compared to control ([3]; 2% oil) | Correlation length peak [A] ([3]; 4% oil) | Change in correlation length compared to control ([3]; 4% oil) | Specific diffusivity ratio measured at 4% [4] | Diffusion Coefficient (m^2/s) surfactant at 4% additive [4]
1 | CC(CC=O)CCCC(C)(C)O (centres unmarked) [Hydroxycitronellal] | 310.8 cSt | 145.4 cSt | 65.9 cSt | 34.1 cSt | 34 cSt | 161 cP | – | – | – | – | – | – | –
2 | CC(=O)c1ccccc1 [Acetophenone] | – | – | – | – | – | 119 cP | – | – | – | – | – | – | –
3 | CCOC(=O)C1OC1(C)c1ccccc1 (centres unmarked) [Ethyl Methyl Phenyl Glycidate] | – | – | – | – | – | 163 cP | – | – | – | – | – | – | –
4 | C=C(C)[C@H]1CC=C(C)CC1 [Limonene] | 366.5 cSt | 166.8 cSt | 97.5 cSt | 86.4 cSt | 86 cSt | 160 cP | 40 cP | 57 A | 11.8% | 62 A | 21.6% | 0.7428 | 2.4338E−12 m^2/s
5 | CC12CCC(CC1)C(C)(C)O2 [Eucalyptol] | 527.3 cSt | 292.9 cSt | 203.1 cSt | – | 203 cSt | 376 cP | – | – | – | – | – | 1.5710 | 1.2262E−11 m^2/s
6 | CC1=CCC2CC1C2(C)C (stereo not drawn) [alpha-Pinene] | – | – | – | – | – | 207 cP | – | – | – | – | – | – | –
7 | CC(C)=CCC/C(C)=C/COC(=O)Cc1ccccc1 [Geranyl Phenyl Acetate] | 224.0 cSt | 76.0 cSt | 34.3 cSt | 36.6 cSt | 34 cSt | – | – | 55 A | 7.8% | 60 A | 17.6% | 0.8119 | 3.6554E−12 m^2/s
8 | CC(=O)CCc1ccc(O)cc1 [Raspberry Ketone] | 151.9 cSt | 107.4 cSt | 54.0 cSt | 33.0 cSt | 33 cSt | 110 cP | 160 cP | 50 A | −2.0% | 49 A | −3.9% | 5.1364 | 9.5404E−12 m^2/s
